According to patent publication US20220401483A1, “COMBINATION OF A T CELL THERAPY AND (S)-3-[4-(4-MORPHOLIN-4-YLMETHYL-BENZYLOXY)-L-OXO-L,3-DIHYDRO-ISOINDOL-2-YL]-PIPERIDINE-2,6-DIONE” (Juno Therapeutics, Inc., priority 2019, published 2022):

Columns and labels:
Format in all cases: cell-based, human
[1] = test system: K562.CD19, Raji, Granta-519 cells; test: Cytolytic activity of CAR T cells after chronic stimulation with concurrent treatment, rechallenge with CD19+ tumor cells; details: 0.001 μM or 0.01 μM, E:T 1:1, vs control
Protocol: Anti-CD19 CAR-expressing T cells were produced substantially as described in Example 1. To subject cells to chronic stimulation conditions, the CAR+ T cells were stimulated with 30 μg/mL plate-bound anti-idiotypic (anti-ID) antibody (see e.g. WO2018/023100) for 6 days in the presence of (S)-3-[4-(4-morpholin-4-ylmethyl-benzyloxy)-1-oxo-1,3-dihydro-isoindol-2-yl]-piperidine-2,6-dione (Compound A) or a vehicle control, to induce chronic stimulation. After the 6-day culture period, the anti-CD19 CAR-expressing T cells were removed from culture and incubated with K562 cells transduced with CD19 (K562.CD19), Raji tumor cells, and Granta-519 tumor cells (to rechallenge the CAR-T cells) at an effector to target ratio of 2.5:1 unless otherwise indicated, in the presence of Compound A, at concentrations ranging from 0.001 μM to 10 μM, or vehicle control for up to 10 days. […] Cells were assessed at various times for cytolytic function, CAR T cell number and cytokine production.
CAR T cells that had been stimulated for 6 days with anti-ID concurrently in the presence of Compound A (0.001 μM or 0.01 μM) were washed free of compound and co-cultured with CD19+ tumor cells at an effector to target (E:T) ratio of 1:1 in the absence of Compound A. The assessed CD19+ tumor cells included K562 cells transduced with CD19 (K562.CD19), Raji cells, or Granta-519 cells.

[2] = test system: anti-CD19 CAR T cells; test: RNA-seq gene expression of anti-CD19 CAR T cells sorted from tumor spheroids
Protocol: Gene expression analysis of anti-CD19 CAR T cells sorted from tumor spheroids 5 days after co-culture as described above was analyzed by RNA sequencing (RNA-seq) on the complementary DNA (cDNA) samples prepared from the RNA isolated from the long-term stimulated CAR-expressing T cells or on CAR-expressing T cells that had not undergone the long-term stimulation. Libraries for RNA-seq were sequenced on Illumina NextSeq system. Reads were mapped to the human reference genome GRCh38, and gene expression levels were quantified in Array Studio. Differential expression (DE, for RNA-seq) analysis was performed using DESeq2.
The dots on the top left quadrant represent genes induced by chronic stimulation and the dots on the lower right quadrant represent genes reversed by Compound A.
Pathway enrichment analysis of the differentially expressed genes were performed using clusterProfiler.
Gene expression analysis by RNA-seq was carried out substantially as described in Example 3.

[3] = test system: K562.CD19, Raji, Granta-519 cells; test: Cytolytic activity of chronically stimulated CAR T cells with rescue treatment, CD19+ tumor cells; details: 0.001 μM or 0.01 μM, E:T 1:1, vs control
Protocol: (§1) Anti-CD19 CAR-expressing T cells from three donors, produced as described in Example 1, were stimulated under conditions to induce chronic stimulation (to produce hypofunctional, exhausted T cells) and then were subsequently treated (rescue) with (S)-3-[4-(4-morpholin-4-ylmethyl-benzyloxy)-1-oxo-1,3-dihydro-isoindol-2-yl]-piperidine-2,6-dione (Compound A), or a vehicle control. Long-term, chronic stimulation was carried out by stimulation of CAR T cells with 30 μg/mL plate-bound anti-idiotypic (anti-ID) antibody for 6 days, substantially as described in Example 3 but in the absence of Compound A. After the chronic stimulation, the CAR-T cells were rechallenged with CD19-expressing target cells in the presence of Compound A, and cytolytic activity or cytokine production was assessed.
CAR T cells that had been stimulated for 6 days with anti-ID were co-cultured with CD19+ tumor cells at an effector to target (E:T) ratio of 1:1, in the presence of Compound A (0.001 μM or 0.01 μM). The assessed CD19+ tumor cells included K562 cells transduced with CD19 (K562.CD19), Raji cells or Granta-519 cells.

[4] = test system: Granta-519 tumor spheroids; test: Spheroid tumor growth assay, rescue treatment of chronically stimulated CAR T cells
Protocol: as §1
CAR T cells that had been stimulated for 6 days with anti-ID were co-cultured by incubation with Granta-519 tumor spheroids, in the presence or absence of Compound A (0.001 μM or 0.01 μM). Cells were assessed at various time points for cytolytic function and cytokine function. For comparison, cytolytic activity was also assessed for cells that had been similarly chronically stimulated with anti-ID, followed by co-culture in the presence of 1 μM or 0.1 μM Compound B. Averaged measurement of tumor spheroid size at Day 9 following co-culture with CAR-T cells was assessed. […] The improvement in cytolytic function was greater following rescue treatment with Compound A than Compound B. Cytokines (IFNγ, IL-2 and TNFalpha) were measured from supernatant of the chronically stimulated CAR T cells above that had been co-cultured for 5 days with CD19 tumor spheroids. The log 2 fold change compared to control cells (chronically stimulated cells that had not been treated with immunomodulatory compound) is shown in FIG. 4C.

[5] = test system: anti-CD19 CAR T cells; test: Intracellular cytokine staining of acutely stimulated anti-CD19 CAR T cells; details: 3 days, 30 μg/mL agonistic anti-CAR antibody
Protocol: Effector and proliferative activity of anti-CD19 CAR T cells were assessed following incubation in the presence of absence of Compound A. Anti-CD19 CAR+ T cell compositions were generated as described in Example 1.
The anti-CD19 CAR T cells were stimulated with agonistic antibody against the CAR (30 μg/mL; WO2018/023100) while being treated with vehicle control (ctrl) or Compound A. Intracellular cytokines were measured using intracellular cytokine staining (ICS) after 3 days of treatment. FIG. 7A show a heatmap of cytokine expression as depicted based on log 2-fold change in mean fluorescence intensity (MFI) of cytokines relative to vehicle control in culture.

[6] = test system: Raji or Granta-519 lymphoma cells; test: Cytolytic assay of CAR T cells treated 3 days, Raji or Granta-519 target cells; details: 1 nM, 10 nM or 100 nM, 3 days treatment
Protocol: After 3 days of treatment with Compound A, anti-CD19 CAR T cells were co-cultured with Raji or Granta-519 lymphoma cells using a cytolytic assay. To assess cytolytic activity, the target cells were labeled with NucLight Red (NLR) to permit tracking by fluorescent microscopy. Killing activity was assessed by measuring the loss of viable target cells over 200 hours, as determined by loss of fluorescent signal over time by kinetic fluorescence microscopy (using the INCUCYTE® Live Cell Analysis System, Essen Bioscience). Tumor cell numbers were normalized to time zero and measured over time (mean±SEM).
FIG. 7B depicts the tumor cell numbers of anti-CD19 CAR T cells treated with 1 nM, 10 nM, or 100 nM Compound A as compared with vehicle control (no Compound A) and tumor only.

Structure (SMILES): O=C1CC[C@H](N2Cc3c(OCc4ccc(CN5CCOCC5)cc4)cccc3C2=O)C(=O)N1 [Compound A, (S)-3-[4-(4-morpholin-4-ylmethyl-benzyloxy)-1-oxo-1,3-dihydro-isoindol-2-yl]-piperidine-2,6-dione]
- cytolytic activity (tumor cell number over time) [1]: improved
- expression changes in genes of T cell function pathways after chronic stimulation ([2]; concurrent treatment): can be reversed
- expression changes in genes of T cell function pathways after chronic stimulation ([2]; rescue treatment): can also be reversed
- cytolytic activity (tumor cell number over time) [3]: statistically significant improvement
- CAR T cell cytolytic function, Granta-519 spheroid growth ([4]; 0.001 μM or 0.01 μM, Day 9): improved
- IFNγ in co-culture supernatant ([4]; 5 days co-culture with spheroids): statistically significant increase
- improvement in cytolytic function compared with Compound B ([4]; Compound B 1 μM or 0.1 μM): greater
- effector cytokine production (ICS, MFI vs vehicle) [5]: potentiates
- cytolytic activity against target cells [6]: improved
